How the values were obtained:
Assay type in all cases: cell-based
Bacillus sp. = experiment: Bacteriostatic effect of BAK with BBG/BBR: turbidity after 24 h incubation; set-up: key to Bakterienwachstum nach 24 h Inkubation: +: Bakterienwachstum nach 24 h Inkubation; -: kein Bakterienwachstum nach 24 h Inkubation
Method: (§1) Zur Untersuchung des Einflusses von BBG auf die bakteriostatische Wirkung wurden Bakterien 24 h mit erfindungsgemäßen Zusammensetzungen, Benzalkoniumchlorid (BAK) und Octenidin (Oct) als Bakteriostatikum enthielten, inkubiert. Wenn sich die Inkubationsmischung trübte, wurde das als Bakterienwachstum interpretiert. Zum Vergleich wurde Brillantblau R (BBR) anstelle von BBG eingesetzt. Die Ergebnisse sind in den Tabellen 1-4 wiedergegeben. Tabelle 1: Einfluss von BBG und BBR auf die bakteriostatische Wirkung von BAK gegenüber Escherichia coli (E. coli), + = Bakterienwachstum nach 24 h Inkubation, - = kein Bakterienwachstum nach 24 h Inkubation, R = Brillantblau R (BBR), G = Brillantblau G (BBG).
Tabelle 2: Einfluss von BBG und BBR auf die bakteriostatische Wirkung von BAK gegenüber Bacillus sp., + = Bakterienwachstum nach 24 h Inkubation, - = kein Bakterienwachstum nach 24 h Inkubation, R = Brillantblau R (BBR), G = Brillantblau G (BBG).

[1] = system: Escherichia coli (E. coli); experiment: as above; set-up: key to Bakterienwachstum nach 24 h Inkubation: +: Bakterienwachstum nach 24 h Inkubation; -: kein Bakterienwachstum nach 24 h Inkubation
Method: as §1

Paenibacillus sp. = experiment: Bacteriostatic effect of Octenidin with BBG: turbidity after 24 h incubation; set-up: key: +: Bakterienwachstum nach 24 h Inkubation; -: kein Bakterienwachstum nach 24 h Inkubation
Method: as §1
Tabelle 4: Einfluss von BBG auf die bakteriostatische Wirkung von Octenidin (Oct) gegenüber Gram-positiven Bakterien., + = Bakterienwachstum nach 24 h Inkubation, - = kein Bakterienwachstum nach 24 h Inkubation, +/- = geringes Wachstum nach 24 h Inkubation, BBG = Brillantblau G.

CCOc1ccc(Nc2ccc(C(=C3C=CC(=[N+](CC)Cc4cccc(S(=O)(=O)[O-])c4)C=C3C)c3ccc(N(CC)Cc4cccc(S(=O)(=O)O)c4)cc3C)cc2)cc1 [BBG, Brillantblau G]
Bakterienwachstum nach 24 h Inkubation (Bacillus sp.; 0.007% G + BAK 0.001%): -
Bakterienwachstum nach 24 h Inkubation (Bacillus sp.; 0.007% G + BAK 0.01%): -
Bakterienwachstum nach 24 h Inkubation (Bacillus sp.; 0.030% G, Kein BAK): +
Einfluss auf das Bakterienwachstum (Bacillus sp.; dye alone, no BAK (rechte Spalte, Tabelle 2)): beeinflussen das Bakterienwachstum nicht
Bakterienwachstum nach 24 h Inkubation ([1]; 0,007% G + BAK 0,01%): -
Bakterienwachstum nach 24 h Inkubation ([1]; 0,007% G + BAK 0,001 %): +
Bakterienwachstum nach 24 h Inkubation ([1]; 0,007% G + BAK 0,0016%): +
Bakterienwachstum nach 24 h Inkubation ([1]; 0,007% G + BAK 0,0025%): +
Bakterienwachstum nach 24 h Inkubation ([1]; 0,007% G + BAK 0,004%): -
Bakterienwachstum nach 24 h Inkubation ([1]; 0,007% G + BAK 0,006%): -
Bakterienwachstum nach 24 h Inkubation ([1]; 0,015% G + BAK 0,01%): -
Bakterienwachstum nach 24 h Inkubation ([1]; 0,015% G + BAK 0,001 %): +
Bakterienwachstum nach 24 h Inkubation ([1]; 0,015% G + BAK 0,0016%): +
Bakterienwachstum nach 24 h Inkubation ([1]; 0,015% G + BAK 0,0025%): +
Bakterienwachstum nach 24 h Inkubation ([1]; 0,015% G + BAK 0,004%): +
Bakterienwachstum nach 24 h Inkubation ([1]; 0,015% G + BAK 0,006%): -
Bakterienwachstum nach 24 h Inkubation ([1]; 0,030% G + BAK 0,01%): +
Bakterienwachstum nach 24 h Inkubation ([1]; 0,030% G + BAK 0,001 %): +
Bakterienwachstum nach 24 h Inkubation ([1]; 0,030% G + BAK 0,0016%): +
Bakterienwachstum nach 24 h Inkubation ([1]; 0,030% G + BAK 0,0025%): +
Bakterienwachstum nach 24 h Inkubation ([1]; 0,030% G + BAK 0,004%): +
Bakterienwachstum nach 24 h Inkubation ([1]; 0,030% G + BAK 0,006%): +
Bakterienwachstum nach 24 h Inkubation ([1]; 0,030% G, Kein BAK): +
Einfluss auf die bakteriostatische Wirkung von BAK ([1]; Gram-negative Bakterien (E. coli), concentration dependent): einen etwas größeren Einfluss als BBR
Einfluss auf das Bakterienwachstum ([1]; dye alone, no BAK (rechte Spalte, Tabelle 1)): beeinflussen das Bakterienwachstum nicht
Bakterienwachstum nach 24 h Inkubation (Paenibacillus sp.; 0,007% BBG + Octenidin 0,01%): -
Bakterienwachstum nach 24 h Inkubation (Paenibacillus sp.; 0,007% BBG + Octenidin 0,002%): -
Bakterienwachstum nach 24 h Inkubation (Paenibacillus sp.; 0,007% BBG + Octenidin 0,003%): -
Bakterienwachstum nach 24 h Inkubation (Paenibacillus sp.; 0,007% BBG + Octenidin 0,005%): -
Bakterienwachstum nach 24 h Inkubation (Paenibacillus sp.; 0,007% BBG + Octenidin 0,007%): -
Bakterienwachstum nach 24 h Inkubation (Paenibacillus sp.; 0,007% BBG + Octenidin 0,009%): -
Bakterienwachstum nach 24 h Inkubation (Paenibacillus sp.; 0,007% BBG, Octenidin 0%): +
Bakterienwachstum nach 24 h Inkubation (Paenibacillus sp.; 0,015% BBG + Octenidin 0,01%): -
Bakterienwachstum nach 24 h Inkubation (Paenibacillus sp.; 0,015% BBG + Octenidin 0,002%): +
Bakterienwachstum nach 24 h Inkubation (Paenibacillus sp.; 0,015% BBG + Octenidin 0,003%): +
Bakterienwachstum nach 24 h Inkubation (Paenibacillus sp.; 0,015% BBG + Octenidin 0,005%): -
Bakterienwachstum nach 24 h Inkubation (Paenibacillus sp.; 0,015% BBG + Octenidin 0,007%): -
Bakterienwachstum nach 24 h Inkubation (Paenibacillus sp.; 0,015% BBG + Octenidin 0,009%): -
Bakterienwachstum nach 24 h Inkubation (Paenibacillus sp.; 0,015% BBG, Octenidin 0%): +
Bakterienwachstum nach 24 h Inkubation (Paenibacillus sp.; 0,030% BBG + Octenidin 0,01%): -
Bakterienwachstum nach 24 h Inkubation (Paenibacillus sp.; 0,030% BBG + Octenidin 0,002%): +
Bakterienwachstum nach 24 h Inkubation (Paenibacillus sp.; 0,030% BBG + Octenidin 0,003%): +
Bakterienwachstum nach 24 h Inkubation (Paenibacillus sp.; 0,030% BBG + Octenidin 0,005%): +
Bakterienwachstum nach 24 h Inkubation (Paenibacillus sp.; 0,030% BBG + Octenidin 0,007%): +
Bakterienwachstum nach 24 h Inkubation (Paenibacillus sp.; 0,030% BBG + Octenidin 0,009%): +
Bakterienwachstum nach 24 h Inkubation (Paenibacillus sp.; 0,030% BBG, Octenidin 0%): +

— patent publication EP3041353B1, “COMPOSITIONS COMPRISING BACTERIOSTATIC AGENTS AND BRILLIANT BLUE G” (priority 2013, dated 2015)
